In ChEMBL document CHEMBL1138256 (Bioorg Med Chem Lett, 2007):
Active and inactive are the calls of the source. No cut-off for these calls is given here.

Test system: not listed separately
Assay: (§1) Inhibition of Clostridium botulinum A recombinant light chain protease LC/A by FRET assay

`O=C(NO)c1cc2ccc(Cl)cc2s1` and `Cn1c(C(=O)NO)cc2ccc(Cl)cc21` are within 1.5-fold of each other in IC50: 45 µM for the first, 38 µM for the second.

Going from `O=C(NO)C1=Cc2ccc(Cl)cc2C1` to `O=C(NO)c1ccc2cc(Cl)ccc2c1`, the IC50 falls from 41 µM to 21 µM (2-fold).

`O=C(/C=C/c1ccc(Cl)cc1Cl)NO` [CINNAMIC ACID HYDROXAMATE] and `O=C(/C=C/c1ccc(Cl)cc1Br)NO` are within 1.5-fold of each other in IC50: 0.9 µM for the first, 0.7 µM for the second.

Going from `CSc1cc(Cl)ccc1/C=C/C(=O)NO` to `Cc1cc(Cl)ccc1/C=C/C(=O)NO`, the IC50 falls from 5.1 µM to 0.8 µM (6.4-fold).

Going from `O=C(/C=C/c1ccc(Cl)cc1F)NO` to `O=C(/C=C/c1ccc(Cl)cc1O)NO`, the IC50 rises from 4.4 µM to 13 µM (3-fold). The first is the more potent here.

Compared with `O=C(/C=C/c1ccc(Cl)cc1[N+](=O)[O-])NO`, `Nc1cc(Cl)ccc1/C=C/C(=O)NO` is 12-fold higher in IC50: 2 µM for the first, 25 µM for the second. The first is the more potent here.

First: CS(=O)(=O)c1cc(Cl)ccc1/C=C/C(=O)NO
Second: COc1cc(Cl)ccc1/C=C/C(=O)NO
The IC50 of the first is 1.9-fold higher: 17 µM for the first, 9 µM for the second.

Compared with `N#Cc1cc(Cl)ccc1/C=C/C(=O)NO`, `O=C(/C=C/c1ccc(Cl)cc1C(F)(F)F)NO` is 20-fold lower in IC50: 12 µM for the first, 0.6 µM for the second.

`O=C(NO)c1ccc2cc(Br)ccc2c1` showed an IC50 of 71 µM.

Test system: Clostridium botulinum
Assay: as §1

With `O=C(NO)c1cc2ccc(Cl)cc2[nH]1` the Activity was “inactive”.

Test system: Clostridium botulinum
Assay: Inhibition of Clostridium botulinum A recombinant light chain protease LC/A by at 100 uM by FRET assay

With `O=C(NO)c1cc2ccc(Cl)cc2[nH]1` the Activity was “inactive”.
